{
  "source": "patent US12031171B2",
  "about": "“Fatty acid esters against infections in fermentations” (PURAC BIOCHEM BV, priority 2016, dated 2024)",
  "key": {"[1]": {"system": "Clostridium perfringens ATCC 13124", "assay_type": "cell-based", "conditions": "brain heart infusion broth, pH 6.0, 30° C., 0% oxygen"}, "[2]": {"system": "Clostridium pasteurianum JEG2", "test": "Mixed culture fermentation of Escherichia coli TG128 with Clostridium pasteurianum JEG2 (7 litre fermenters)", "assay_type": "cell-based", "conditions": "Fermenter 3, mixed culture"}, "[3]": {"conditions": "0.05% (w/v) added, 25-35 hours, pH 6.5, 37° C."}},
  "data": [
    {"smiles": "CCCCCCCCC=CCCCCCCCC(=O)OC(C)C(=O)O", "note": "(stereo not shown) [Olacta, Octadecenoyl-lactylate]", "values": [
      {"measurement": "MIC value", "setting": "[1]", "result": "0.02 % (w/v)"}
    ]},
    {"smiles": "CCCCCCCCCCCCCC(=O)O", "note": "[Tetradecanoic acid, reference compound]", "values": [
      {"measurement": "MIC value", "setting": "[1]", "result": ">0.01 % (w/v)"}
    ]},
    {"smiles": "CCCCCCCCCC(=O)OC(C)C(=O)O", "note": "(stereo not shown) [Decanoyl-lactylate]", "values": [
      {"measurement": "MIC value", "setting": "[1]", "result": "0.04 % (w/v)"}
    ]},
    {"smiles": "CCCCCCCCCCCCCCCC(=O)OC(C)C(=O)O", "note": "(stereo not shown) [Hexadecanoyl-lactylate]", "values": [
      {"measurement": "MIC value", "setting": "[1]", "result": "0.002 % (w/v)"}
    ]},
    {"smiles": "CCCCCCCCCCCCCCOS(=O)(=O)[O-].[Na+]", "note": "[Sodium tetradecyl sulfate, reference compound]", "values": [
      {"measurement": "MIC value", "setting": "[1]", "result": "0.001 % (w/v)"}
    ]},
    {"smiles": "CCCCCCCCCCCCCC(=O)OC(C)C(=O)O", "note": "(stereo not shown) [Tetradecanoyl-lactylate, tetradecanoyl-lactylate]", "values": [
      {"measurement": "results of Fermenter 3 compared with those at 0.05% (w/v)", "setting": "[2]; 0.025% (w/v) added", "result": "Exactly the same results"},
      {"measurement": "endospore bearing cells, microscopic examination of the culture broth", "setting": "[2]; 0.05% (w/v) added", "result": "no endospore bearing cells"},
      {"measurement": "foam and putrid smell produced by the fermenter", "setting": "[2]; 0.05% (w/v) added", "result": "no foam or putrid smell"},
      {"measurement": "impurity profile of fermentation broth compared with the Escherichia coli TG128 standard fermentation (Fermenter 1)", "setting": "[2]; 0.05% (w/v) added", "result": "no difference in impurity profile"},
      {"measurement": "performance of Fermenter 3 compared with Fermenter 1 (pure culture of Escherichia coli TG128)", "setting": "[2]; 0.05% (w/v) added", "result": "in every respect similar"},
      {"measurement": "2-hydroxy butyric acid", "setting": "[2]; [3]", "result": "<0.1", "unit": "g/L"},
      {"measurement": "% enantiomeric excess: (R − S)/(R + S)", "setting": "[2]; [3]", "result": 99.3, "unit": "%"},
      {"measurement": "Acetic acid", "setting": "[2]; [3]", "result": 0.3, "unit": "g/L"},
      {"measurement": "Benzoic acid", "setting": "[2]; [3]", "result": "<0.3", "unit": "g/L"},
      {"measurement": "Butyric acid", "setting": "[2]; [3]", "result": 0.1, "unit": "g/L"},
      {"measurement": "Citric acid", "setting": "[2]; [3]", "result": "<0.5", "unit": "g/L"},
      {"measurement": "Ethanol", "setting": "[2]; [3]", "result": 0.08, "unit": "g/L"},
      {"measurement": "Formic acid", "setting": "[2]; [3]", "result": "<0.2", "unit": "g/L"},
      {"measurement": "Fumaric acid", "setting": "[2]; [3]", "result": "<0.2", "unit": "g/L"},
      {"measurement": "Glycolic acid", "setting": "[2]; [3]", "result": "<0.5", "unit": "g/L"},
      {"measurement": "Maleic acid", "setting": "[2]; [3]", "result": "<0.2", "unit": "g/L"},
      {"measurement": "Malic acid", "setting": "[2]; [3]", "result": "<0.5", "unit": "g/L"},
      {"measurement": "Oxalic acid", "setting": "[2]; [3]", "result": "<0.2", "unit": "g/L"},
      {"measurement": "Propionic acid", "setting": "[2]; [3]", "result": "<0.1", "unit": "g/L"},
      {"measurement": "Pyruvic acid", "setting": "[2]; [3]", "result": "<0.1", "unit": "g/L"},
      {"measurement": "R-lactate", "setting": "[2]; [3]", "result": 81.8, "unit": "g/L"},
      {"measurement": "S-lactate", "setting": "[2]; [3]", "result": 0.3, "unit": "g/L"},
      {"measurement": "Sorbic acid", "setting": "[2]; [3]", "result": "<0.1", "unit": "g/L"},
      {"measurement": "Succinic acid", "setting": "[2]; [3]", "result": "<0.1", "unit": "g/L"},
      {"measurement": "glucose", "setting": "[2]; [3]", "result": 2.3, "unit": "g/L"},
      {"measurement": "% enantiomeric excess: (R − S)/(R + S)", "setting": "[2]; 0.05% (w/v) added, 25-35 hours, pH 6.5, 37° C., listed as tetradacanoyl-lactylate", "result": "~100", "unit": "%"},
      {"measurement": "MIC value", "setting": "[1]", "result": "0.001 % (w/v)"}
    ]},
    {"smiles": "CCCCCCCC(=O)OC(C)C(=O)[O-].[Na+]", "note": "(stereo not shown) [Octanoyl-lactylate]", "values": [
      {"measurement": "MIC value", "setting": "[1]", "result": "0.05 % (w/v)"}
    ]},
    {"smiles": "CCCCCCCCCCCC(=O)OC(C)C(=O)O", "note": "(stereo not shown) [Dodecanoyl-lactylate]", "values": [
      {"measurement": "MIC value", "setting": "[1]", "result": "0.002 % (w/v)"}
    ]}
  ]
}
